Holding throughout (type): cell-based
Data set [1] relates to head and neck cancer cells. As to the kind of experiment: Dose-dependent cell apoptosis by MTT assay, cancer cell lines (Example 5). The following applies: MTT at 72 hours. Here is the method:
(§1) The cell line was made by the cells and the cell cultivation method described in example 2 as same.
(§2) After culturing the cancer cells and normal cells at 96 well-plate in 30-40% level 24-hours in advance by pre-seeding, treating with each reagent, and pre-evaluating killing ability by analyzing cell shape through microscope at 24 hours/48 hours/72 hours after, the quantitative analysis was done by MTT (3-(4,5-dimethylthiazol-2-yl)-2,5-diphenyltetrazolium bromide, a yellow tetrazole) assay which measures OD (optical density) values at 72 hours after.
A general note: Tetrazolium dyes change colour on reduction, which living cells bring about.

Data set [2] has as its system normal cell DPSC (Dental Pulp Stem Cell). As to the kind of experiment: Dose-dependent cell apoptosis by MTT assay, normal cells (Example 5). Here is the method:
as §1, §2

In data set [3] the test system is HN5 and OSC19 head and neck cancer cells. As to the kind of experiment: Intracellular trafficking (cell penetrability) by flow cytometry (FACS). The note with it: 10 uM, 2.5 hours. Here is the method: (§3) In order to analysis of intracellular trafficking, Korean head and neck cancer cells (SNU-1041, SNU-1076), head and neck cancer cells founded by MD Anderson cancer center (OSC19, HN5), and normal cells DPSC (Dental Pulp Stem Cell) were used. The cell lines was maintained in good condition by seeding each cells to 100 cm2-culture dishes with RPMI-1640 or DMEM culture-media, 10% FBS and antibiotic-antimycotic antibiotics and culturing in incubator (37° C., 5% CO2). The condition of cells was maintained in good condition by checking the speed and conditions of cells and sub-culturing cells per 2-5 days.

Data set [4] deals with head and neck cancer cells. Described as above. The note with it: 10 uM, 2.5 hours. Here is the method:
as §3

The test system of data set [5] is SNU-1041 and SNU-1076 head and neck cancer cells. The description is as above. The note with it: SNU-1041 and SNU-1076 cells, 10 uM, 2.5 hours, FIG. 2. Here is the method:
In order to analysis of intracellular trafficking, Korean head and neck cancer cells (SNU-1041, SNU-1076), head and neck cancer cells founded by MD Anderson cancer center (OSC19, HN5), and normal cells DPSC (Dental Pulp Stem Cell) were used.
The cell lines was maintained in good condition by seeding each cells to 100 cm2-culture dishes with RPMI-1640 or DMEM culture-media, 10% FBS and antibiotic-antimycotic antibiotics and culturing in incubator (37° C., 5% CO2). The condition of cells was maintained in good condition by checking the speed and conditions of cells and sub-culturing cells per 2-5 days.
After culturing the cells with prepared cancer cells in 6 well-plate at 60-70% level 24-hours in advance, treating FITC (10 uM), pep1-FITC (10 uM), FITC-TAT (10 uM) separately, eliminating the culture media 2.5 hours later, washing with saline, and separating cells by treating Trypsin-EDTA enzyme to prepare each tube of 10^6 cells/ml, the cells was analyzed by FACS.

Residues, ends and D or L forms follow the SMILES beside them. No end group written: not given here.

For the molecule `Cc1ccc(S(=O)(=O)OCC(=O)Nc2ccc(C(=O)O)c(O)c2)cc1` [NSC 74859], in data set [1] (FIG. 4, FIG. 5), the “concentration from which killing / apoptosis of cancer cells started” value was 50 µM and the “concentration killing almost the whole cancer cells” value amounted to 200 µM. For the same molecule, in data set [2] (MTT at 72 hours, FIG. 4), the “concentration at which cell apoptosis of normal cells was shown” value worked out at 200 µM and the “concentration till which normal cells were not killed” value is 100 µM. “pep1-FITC (EARPALLTSRLRFIPK; also: FITC label, site not given here; UniProt O14746 611-626, looked up, fragment)”: the “cell penetrability (in words)” value in data set [3] is on record as “lower cell penetrability”. The “cell penetrability compared with FITC only” value in data set [4] is recorded as “improved cell penetrability than the FITC only”. NRGFKAGRNMRRKLFGVLRL [pep98]: the “proliferation of cancer cells (cytotoxicity)” value in data set [1] (treated alone, FIG. 3) was “not significantly decreased”. For “pep 1: pep 1 (consists of 16 amino acids) derived from telomerase, used for comparison (EARPALLTSRLRFIPK; UniProt O14746 611-626, looked up, fragment)”, the “cell penetrability (in words)” value in data set [5] was “high cell penetrability”. Regarding `CSCC[C@H](NC(=O)[C@H](CC(N)=O)NC(=O)[C@H](CCCNC(=N)N)NC(=O)CNC(=O)[C@H](C)NC(=O)[C@H](CCCCN)NC(=O)[C@H](Cc1ccccc1)NC(=O)CNC(=O)[C@H](CCCNC(=N)N)NC(=O)[C@H](CC(N)=O)NC(=O)c1ccc(NC(=O)COS(=O)(=O)c2ccc(C)cc2)cc1O)C(=O)N[C@@H](CCCNC(=N)N)C(=O)N[C@@H](CCCNC(=N)N)C(=O)N[C@@H](CCCCN)C(=O)N[C@@H](CC(C)C)C(=O)N[C@@H](Cc1ccccc1)C(=O)NCC(=O)N[C@H](C(=O)N[C@@H](CC(C)C)C(=O)N[C@@H](CCCNC(=N)N)C(=O)N[C@@H](CC(C)C)C(=O)O)C(C)C` [pep98-NSC 74859] (HELM PEPTIDE1{[Cc1ccc(S(=O)(=O)OCC(=O)[*:2])cc1].[O=C(c1ccc(N[*:1])cc1O)[*:2]].N.R.G.F.K.A.G.R.N.M.R.R.K.L.F.G.V.L.R.L}$$$$V2.0), the “killing of normal cells (in words)” value in data set [2] (at the concentration that killed almost the whole cancer cells, FIG. 5) is reported as “did not kill normal cell DPSC”.

Source of the values: patent US9757473B2, “Cell-penetrating peptide and conjugate comprising same” (GEMVAX & KAEL CO., LTD., priority 2013, dated 2017).
